Drawing on US8735398B2 (Bristol-Myers Squibb Company, priority 2009, dated 2014), this text covers EC50 for 19 molecules.

Each structure is given as a SMILES string. Where two headings read alike, the source gives them in different places.

The assay deals with HCV 1b genotype. Nature of the assay: HCV replicon assay (HCV-neo replicon cells, wild-type). Particulars: Hepatitis C virus, HCV 1b genotype replicon. The format is cell-based, Hepatitis C virus. The method, boiled down:
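HCV-neo replicon cells (wild-type) and replicon cells carrying NS5A resistance substitutions were treated with compounds; assay per O'Boyle et al. 2005, with luciferase-reporter read-out variants also used.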

Where [1] appears, read: class symbols, read-out: EC50 Range against HCV 1b.

Regarding `C[C@H](NC(=O)c1nc(Cl)cc2ccccc12)C(=O)Nc1ccc(-c2nnc(-c3ccc(NC(=O)[C@H](C)NC(=O)c4nc(Cl)cc5ccccc45)cc3)o2)cc1` [RK-36, N,N′-(1,3,4-oxadiazole-2,5-diylbis(4,1-phenyleneimino((2S)-1-oxo-1,2-propanediyl)))bis(3-chloro-1-isoquinolinecarboxamide)], the EC50 was 1000 to 10000 nM under setting [1] and 1000 nM (read-out: EC50 1b).

On to `C[C@H](NC(=O)c1cc(Cl)ccn1)C(=O)Nc1ccc(-c2nnc(-c3ccc(NC(=O)[C@H](C)NC(=O)c4cc(Cl)ccn4)cc3)o2)cc1` [RK-37, N,N′-(1,3,4-oxadiazole-2,5-diylbis(4,1-phenyleneimino((2S)-1-oxo-1,2-propanediyl)))bis(4-chloro-2-pyridinecarboxamide)], for which the EC50 under setting [1] fell in the range of 1000 to 10000 nM.

Take `C[C@H](NC(=O)[C@H](c1ccccc1)N(C)C)C(=O)Nc1ccc(-c2nnc(-c3ccc(NC(=O)[C@H](C)NC(=O)[C@H](c4ccccc4)N(C)C)cc3)o2)cc1` [RK-38, (2S,2′S)-N,N′-(1,3,4-oxadiazole-2,5-diyldi-4,1-phenylene)bis(2-(((2S)-2-(dimethylamino)-2-phenylacetyl)amino)propanamide)]: the EC50 is, setting by setting: under setting [1], below 4.57 nM; (read-out: EC50 1b) below 5 nM.

In the case of `CN(C)[C@H](C(=O)N1CCC[C@H]1C(=O)Nc1ccc(-c2nnc(-c3ccc(NC(=O)[C@@H]4CCCN4C(=O)[C@H](c4ccccc4)N(C)C)cc3)o2)cc1)c1ccccc1` [RK-39, (2S,2′S)-N,N′-(1,3,4-oxadiazole-2,5-diyldi-4,1-phenylene)bis(1-((2S)-2-(dimethylamino)-2-phenylacetyl)-2-pyrrolidinecarboxamide)], the EC50 is below 4.57 nM under setting [1] and below 5 nM (read-out: EC50 1b).

For the molecule `COc1cc(C(=O)N2CCC[C@H]2C(=O)Nc2ccc(-c3nnc(-c4ccc(NC(=O)[C@@H]5CCCN5C(=O)c5cc(Cl)nc(OC)c5)cc4)o3)cc2)cc(Cl)n1` [RK-40, (2S,2′S)-N,N′-(1,3,4-oxadiazole-2,5-diyldi-4,1-phenylene)bis(1-(2-chloro-6-methoxyisonicotinoyl)-2-pyrrolidinecarboxamide)], the EC50 under setting [1] lay in the range of 1000 to 10000 nM.

Consider `COc1cc(C(=O)N[C@@H](C)C(=O)Nc2ccc(-c3nnc(-c4ccc(NC(=O)[C@H](C)NC(=O)c5cc(Cl)nc(OC)c5)cc4)o3)cc2)cc(Cl)n1` [RK-41, N,N′-(1,3,4-oxadiazole-2,5-diylbis(4,1-phenyleneimino((2S)-1-oxo-1,2-propanediyl)))bis(2-chloro-6-methoxyisonicotinamide)], for which the EC50 under setting [1] is 1000 to 10000 nM.

On to `Cn1cc(C(=O)N2CCC[C@H]2C(=O)Nc2ccc(-c3nnc(-c4ccc(NC(=O)[C@@H]5CCCN5C(=O)c5cn(C)c6ccccc56)cc4)o3)cc2)c2ccccc21` [RK-42, (2S,2′S)-N,N′-(1,3,4-oxadiazole-2,5-diyldi-4,1-phenylene)bis(1-((1-methyl-1H-indol-3-yl)carbonyl)-2-pyrrolidinecarboxamide)], for which the EC50 under setting [1] lay in the range of 1000 to 10000 nM.

With `O=C(Nc1ccc(-c2cnc(-c3ccc(NC(=O)[C@@H]4CCCN4C(=O)c4cccs4)cc3)o2)cc1)[C@@H]1CCCN1C(=O)c1cccs1` [XY-1, (2S,2′S)-N,N′-(1,3-oxazole-2,5-diyldi-4,1-phenylene)bis(1-(2-thienylcarbonyl)-2-pyrrolidinecarboxamide)], the EC50 under setting [1] fell in the range of 100 to 999 nM.

`N#CC1(C(=O)N2CCC[C@H]2C(=O)Nc2ccc(-c3cnc(-c4ccc(NC(=O)[C@@H]5CCCN5C(=O)C5(C#N)CC5)cc4)o3)cc2)CC1` [XY-2, (2S,2′S)-N,N′-(1,3-oxazole-2,5-diyldi-4,1-phenylene)bis(1-((1-cyanocyclopropyl)carbonyl)-2-pyrrolidinecarboxamide)]: the EC50 under setting [1] lay within 100 to 999 nM.

As to `COc1cccc(CC(=O)N2CCC[C@H]2C(=O)Nc2ccc(-c3cnc(-c4ccc(NC(=O)[C@@H]5CCCN5C(=O)Cc5cccc(OC)c5)cc4)o3)cc2)c1` [XY-3, (2S,2′S)-N,N′-(1,3-oxazole-2,5-diyldi-4,1-phenylene)bis(1-((3-methoxyphenyl)acetyl)-2-pyrrolidinecarboxamide)], the half-maximal effective concentration (EC50) was 100 to 999 nM under setting [1] and 321 nM (read-out: EC50 1b).

For `O=C(Nc1ccc(-c2cnc(-c3ccc(NC(=O)[C@@H]4CCCN4C(=O)c4cccnc4)cc3)o2)cc1)[C@@H]1CCCN1C(=O)c1cccnc1` [XY-4, (2S,2′S)-N,N′-(1,3-oxazole-2,5-diyldi-4,1-phenylene)bis(1-(3-pyridinylcarbonyl)-2-pyrrolidinecarboxamide)], under setting [1], the concentration giving a half-maximal response (EC50) fell in the range of 100 to 999 nM.

For the molecule `CN(C)CC(=O)N1CCC[C@H]1C(=O)Nc1ccc(-c2cnc(-c3ccc(NC(=O)[C@@H]4CCCN4C(=O)CN(C)C)cc3)o2)cc1` [XY-5, (2S,2′S)-N,N′-(1,3-oxazole-2,5-diyldi-4,1-phenylene)bis(1-((dimethylamino)acetyl)-2-pyrrolidinecarboxamide)], the EC50 under setting [1] was in the range of 1000 to 10000 nM.

For `O=C(Nc1ccc(-c2cnc(-c3ccc(NC(=O)[C@@H]4CCCN4C(=O)c4ccccn4)cc3)o2)cc1)[C@@H]1CCCN1C(=O)c1ccccn1` [XY-6, (2S,2′S)-N,N′-(1,3-oxazole-2,5-diyldi-4,1-phenylene)bis(1-(2-pyridinylcarbonyl)-2-pyrrolidinecarboxamide)], the concentration for a half-maximal effect (EC50) under setting [1] was in the range of 1000 to 10000 nM.

On to `O=C(Nc1ccc(-c2cnc(-c3ccc(NC(=O)[C@@H]4CCCN4C(=O)c4cc(F)cc(F)c4)cc3)o2)cc1)[C@@H]1CCCN1C(=O)c1cc(F)cc(F)c1` [XY-7, (2S,2′S)-N,N′-(1,3-oxazole-2,5-diyldi-4,1-phenylene)bis(1-(3,5-difluorobenzoyl)-2-pyrrolidinecarboxamide)], for which the EC50 under setting [1] lay within 100 to 999 nM.

Take `COCCOCC(=O)N1CCC[C@H]1C(=O)Nc1ccc(-c2cnc(-c3ccc(NC(=O)[C@@H]4CCCN4C(=O)COCCOC)cc3)o2)cc1` [XY-8, (2S,2′S)-N,N′-(1,3-oxazole-2,5-diyldi-4,1-phenylene)bis(1-((2-methoxyethoxy)acetyl)-2-pyrrolidinecarboxamide)]: the EC50 under setting [1] lay within 1000 to 10000 nM.

Take `CCCC(C)C(=O)N1CCC[C@H]1C(=O)Nc1ccc(-c2cnc(-c3ccc(NC(=O)[C@@H]4CCCN4C(=O)C(C)CCC)cc3)o2)cc1` (stereo partly drawn) [XY-9, (2S,2′S)-N,N′-(1,3-oxazole-2,5-diyldi-4,1-phenylene)bis(1-(2-methylpentanoyl)-2-pyrrolidinecarboxamide)]: the EC50 under setting [1] fell in the range of 100 to 999 nM.

In the case of `O=C(Nc1ccc(-c2cnc(-c3ccc(NC(=O)[C@@H]4CCCN4C(=O)c4ccccc4F)cc3)o2)cc1)[C@@H]1CCCN1C(=O)c1ccccc1F` [XY-10, (2S,2′S)-N,N′-(1,3-oxazole-2,5-diyldi-4,1-phenylene)bis(1-(2-fluorobenzoyl)-2-pyrrolidinecarboxamide)], the EC50 under setting [1] was 100 to 999 nM.

Regarding `COc1ccc2[nH]cc(CC(=O)N3CCC[C@H]3C(=O)Nc3ccc(-c4cnc(-c5ccc(NC(=O)[C@@H]6CCCN6C(=O)Cc6c[nH]c7ccc(OC)cc67)cc5)o4)cc3)c2c1` [XY-11, (2S,2′S)-N,N′-(1,3-oxazole-2,5-diyldi-4,1-phenylene)bis(1-((5-methoxy-1H-indol-3-yl)acetyl)-2-pyrrolidinecarboxamide)], under setting [1], the EC50 was in the range of 100 to 999 nM.

As for `CC(Oc1cccc(Cl)c1)C(=O)N1CCC[C@H]1C(=O)Nc1ccc(-c2cnc(-c3ccc(NC(=O)[C@@H]4CCCN4C(=O)C(C)Oc4cccc(Cl)c4)cc3)o2)cc1` (stereo partly drawn) [XY-12, (2S,2′S)-N,N′-(1,3-oxazole-2,5-diyldi-4,1-phenylene)bis(1-(2-(3-chlorophenoxy)propanoyl)-2-pyrrolidinecarboxamide)], the 50% effective concentration (EC50) was 100 to 999 nM under setting [1] and 220 nM (read-out: EC50 1b).
